What was measured:
[1] = system: 4T1 mouse breast tumour cells; experiment: Study 003: 4T1 orthotopic model (lung and liver metastases); format: in vivo, female BALB/c mice
Procedure: 4T1 mouse breast tumour cells were orthotopically inoculated into the third mammary fat pad of female BALB/c mice. The mice were randomised into groups when the tumors reached a size of approximately 40 mm^3.
The mice in each group received treatment with either Vehicle Control (Placebo), EMD 121974 (75, 150 or 300 mg/kg as Composition according to Example 18) or Taxol® (8 mg/kg). The Vehicle Control and EMD 121974 were administered by subcutaneous injection, daily; Taxol® was administered by intravenous injection three times per week.
Body weight and tumour volume measurements were made for all mice three times per week. The lungs and liver were excised from all mice at termination. For lung metastasis assessment surface metastases of the lungs were counted and for liver metastasis assessment H&E-stained sections of liver were assessed for the presence and number of micro-metastases.

[2] = system: MDA-MB468 human breast tumour cells; experiment: Study 007: MDA-MB-468 primary tumor growth; format: in vivo, female BALB/c nu/nu mice; conditions: all three dosing groups (75, 150 or 300 mg/kg) daily s.c., composition according to Example 18; Vehicle Control higher than 350 mm^3
Procedure: MDA-MB468 human breast tumour cells were orthotopically inoculated into the third mammary fat pad of female BALB/c nu/nu mice. The mice were randomised into groups when the tumors reached a size of approximately 40 mm^3.
The mice in each group received treatment with either Vehicle Control (Placebo) or EMD 121974 (75, 150 or 300 mg/kg as a Composition according to Example 18) by daily subcutaneous injection. Body weight and tumour volume measurements were made for all mice three times per week.

SCC-15 = experiment: In vitro cell viability by MTS assay, SCC-15; format: cell-based, human; conditions: 5 μg/ml, 24 h
Procedure: (§1) Methods: Three non-small cell lung carcinoma lines (NSCLCs) (H460, A549 and H1299) and three head and neck squamous cell carcinoma lines (HNSCCs) (FaDu, SCC-15 and SCC-25) cell lines were used for in vitro experiments. Of these, H460 and FaDu were used for in vivo testing when grown as xenografts in nude mice. The effects of cilengitide (1-50 μg/ml, 24 h) on in vitro cell viability was determined by MTS assay and on cellular radiosensitivity by clonogenic cell survival assay after exposing the cells to graded single doses of γ-radiation with or without cilengitide (given 1 h before and continued for 23 h after irradiation). In vivo effect of cilengitide on radioresponse of xenografts was assessed by tumor growth delay. When tumor xenografts reached 7 mm in diameter cilengitide treatment (30 or 60 mg/d/5 or 10 days) was initiated followed by a single dose of 15 Gy local radiation (using ^137Cs γ-ray source), when the tumors reached 8 mm.

H1299 = experiment: Cellular radiosensitivity by clonogenic cell survival assay, H1299; format: cell-based, human; conditions: combined with γ-radiation, given 1 h before and continued 23 h after irradiation
Procedure: as §1

[3] = system: BT474 human breast cancer cells; experiment: Her2+ breast cancer model BT474, Cilengitide in combination with Herceptin; format: in vivo, Balbc nu/nu mice; conditions: 300 mg/kg Cilengitide s.c. daily
Text: BT474 human breast cancer cells were subcutaneously injected into Balbc nu/nu mice. The mice were randomized into different treatment groups when the tumors reached a mean tumor volume of approximately 125 mm^3.

[4] = cited from earlier work

In the case of `CC(C)[C@H]1C(=O)N[C@@H](CCCN=C(N)N)C(=O)NCC(=O)N[C@@H](CC(=O)O)C(=O)N[C@H](Cc2ccccc2)C(=O)N1C` [Cilengitide, cyclo-(Arg-Gly-Asp-DPhe-NMeVal)], the “spontaneous liver metastasis formation” value ([1]; 75, 150 or 300 mg/kg daily s.c. as Composition according to Example 18, significant for all doses) is reported as “inhibited spontaneous liver metastasis formation comparable to Taxol”, the “spontaneous lung metastasis formation” value ([1]; daily s.c. as Composition according to Example 18, significant for 300 mg/kg/day) is reported as “spontaneous lung metastasis formation comparable to Taxol” and the “tumour volume on day 60” value [2] is reported as “below 200 mm^3”. For the same molecule, the in vitro viability (SCC-15) was 71.4±2.2%, the radiosensitivity enhancement factor (H1299) was 1.3 and the “tumor growth of Her2+ BT474 tumors under monotherapy” value [3] was “did not inhibit the tumor growth”. The MTD in humans [4] was “no known MTD”.
